Data taken from patent US20260116868A1 (Arcus Biosciences, Inc., priority 2023, published 2026).
pEC50, pIC50: −log10 of the molar value.

These compounds were tested against T1, Cbl-b (Homo sapiens, UniProt Q13191) (assay: Cbl-b probe displacement HTRF binding assay). Conditions: 0.4 nM Cbl-b, 150 nM BODIPY probe.
T1 construct: biotin (biotinylated protein)
How it was run: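 Binding IC50 from four-parameter fit of HTRF signal loss, normalised to DMSO (0%) and no-protein (100%) wells. Biotinylated Cbl-b 0.4 nM was preincubated 60 min with compound (20-point 1:2 dilution) before 15 min with 150 nM BODIPY probe; Tb-streptavidin detection.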

T1 sequence (Q13191 whole entry, species assumed): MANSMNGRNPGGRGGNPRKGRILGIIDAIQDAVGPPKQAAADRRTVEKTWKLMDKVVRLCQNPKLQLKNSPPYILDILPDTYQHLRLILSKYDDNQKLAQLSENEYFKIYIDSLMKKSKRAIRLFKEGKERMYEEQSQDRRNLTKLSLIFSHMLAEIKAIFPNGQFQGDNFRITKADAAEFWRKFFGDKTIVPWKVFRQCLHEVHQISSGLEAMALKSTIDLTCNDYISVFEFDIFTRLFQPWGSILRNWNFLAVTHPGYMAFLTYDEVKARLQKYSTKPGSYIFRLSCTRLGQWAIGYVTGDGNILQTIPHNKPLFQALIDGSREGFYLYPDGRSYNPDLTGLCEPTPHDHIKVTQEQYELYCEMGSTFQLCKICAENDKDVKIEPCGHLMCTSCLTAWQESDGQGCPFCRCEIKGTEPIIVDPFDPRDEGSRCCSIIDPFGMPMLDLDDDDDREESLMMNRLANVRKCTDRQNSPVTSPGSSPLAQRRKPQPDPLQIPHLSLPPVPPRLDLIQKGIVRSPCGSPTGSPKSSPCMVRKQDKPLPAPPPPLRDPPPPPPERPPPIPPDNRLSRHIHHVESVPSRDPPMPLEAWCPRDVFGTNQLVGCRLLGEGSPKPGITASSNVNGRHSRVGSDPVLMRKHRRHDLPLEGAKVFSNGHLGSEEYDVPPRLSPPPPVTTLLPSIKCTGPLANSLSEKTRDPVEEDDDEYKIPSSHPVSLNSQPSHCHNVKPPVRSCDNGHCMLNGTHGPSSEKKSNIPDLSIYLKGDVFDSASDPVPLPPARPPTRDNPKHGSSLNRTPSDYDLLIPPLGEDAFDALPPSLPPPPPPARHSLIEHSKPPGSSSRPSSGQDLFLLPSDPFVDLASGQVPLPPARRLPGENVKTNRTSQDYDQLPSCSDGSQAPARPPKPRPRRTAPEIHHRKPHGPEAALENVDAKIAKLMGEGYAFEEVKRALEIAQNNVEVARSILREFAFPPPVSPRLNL

pIC50, > 7.00:
Cc1ccc(-c2cc(NC(=O)c3cc(CNC[C@@H]4CCCO4)cn(C4CC4)c3=O)nc(C3CC3)c2)c(C(=O)N2CC(F)(F)C2)c1 [Example 304]
CC(C)Oc1cc(-c2ccc(C#N)cc2C(=O)N2CC(F)(F)C2)cc(NC(=O)c2cc(CN[C@@H](C)C(C)(C)F)cn(C3CC3)c2=O)n1 [Example 242]
COc1cc(-c2ccc(OC(F)F)cc2C(=O)N2CC(F)(F)C2)cc(NC(=O)c2cc(CNC[C@H](C)OC)cn(C3CC3)c2=O)n1 [Example 334]
COC(C)(C)CNCc1cc(C(=O)Nc2cc(-c3ccc(C#N)cc3C(=O)N3CC(F)(F)C3)cc(C3CC3)n2)c(=O)n(C2CC2)c1 [Example 401]
CCOc1cc(-c2c(F)cc(Cl)cc2C(=O)N2CC(F)(F)C2)cc(NC(=O)c2cc(CNCC(C)C)cn(C3CC3)c2=O)n1 [Example 213]
COC[C@H](C)NCc1cc(C(=O)Nc2cc(-c3ccc(Cl)cc3C(=O)N3CC(F)(F)C3)cc(C3CC3)n2)c(=O)n(C2CC2)c1 [Example 372]
CC(C)CNCc1cc(C(=O)Nc2cc(-c3c(F)cc(C#N)cc3C(=O)N3CC(F)(F)C3)cc(C3CC3)n2)c(=O)n(C2CC2)c1 [Example 230]
COc1ccc(-c2cc(NC(=O)c3cc(CNC[C@@H]4CCCO4)cn(C4CC4)c3=O)nc(C3CC3)c2)c(C(=O)N2CC(F)C2)c1 [Example 288]
COCCNCc1cc(C(=O)Nc2cc(-c3ccc(C#N)cc3C(=O)N3CC(F)(F)C3)cc(NC(C)C)n2)c(=O)n(C2CC2)c1 [Example 342]
COc1ccc(-c2cc(NC(=O)c3cc(CN[C@@H](C)C4CCC4)cn(C4CC4)c3=O)nc(C3CC3)c2)c(C(=O)N2CC(F)C2)c1 [Example 260]
CC(C)CNCc1cc(C(=O)Nc2cc(-c3ccc(OC(F)F)cc3C(=O)N3CC(F)C3)cc(OC(C)C)n2)c(=O)n(C2CC2)c1 [Example 267]
CC1(CNCc2cc(C(=O)Nc3cc(-c4ccc(C#N)cc4C(=O)N4CC(F)(F)C4)cc(C4CC4)n3)c(=O)n(C3CC3)c2)CC1 [Example 385]
C[C@H](NCc1cc(C(=O)Nc2cc(-c3ccc(C#N)cc3C(=O)N3CC(F)(F)C3)cc(C3CC3)n2)c(=O)n(C2CC2)c1)C1CCCO1 (stereo partly shown) [Example 376]
CCOc1cc(-c2ccc(OC(F)F)cc2C(=O)N2CC(F)C2)cc(NC(=O)c2cc(CNC[C@H](C)OC)cn(C)c2=O)n1 [Example 275]
CC(C)Oc1cc(-c2ccc(C#N)cc2C(=O)N2CC(F)(F)C2)cc(NC(=O)c2cc(CNCC3(F)CCC3)cn(C3CC3)c2=O)n1 [Example 141]
CC(C)CNCc1cc(C(=O)Nc2cc(-c3ccc(Cl)cc3C(=O)N3CC(F)C3)cc(OC(C)C)n2)c(=O)n(C2CC2)c1 [Example 251]
CO[C@@H](C)CNCc1cc(C(=O)Nc2cc(-c3ccc(F)cc3C(=O)N3CC(F)(F)C3)cc(NC(C)C)n2)c(=O)n(C)c1 [Example 380]
CC(C)CNCc1cc(C(=O)Nc2cc(-c3ccc(C(F)F)cc3C(=O)N3CC(F)C3)cc(OC(C)C)n2)c(=O)n(C2CC2)c1 [Example 310]
CO[C@@H](C)CNCc1cc(C(=O)Nc2cc(-c3c(F)cc(C#N)cc3C(=O)N3CC(F)(F)C3)cc(C3CC3)n2)c(=O)n(C2CC2)c1 [Example 224]
Cn1cc(CNC[C@@H]2CCCO2)cc(C(=O)Nc2cc(-c3ccc(C#N)cc3C(=O)N3CC(F)(F)C3)cc(C3CC3)n2)c1=O [Example 173]
CCOc1cc(-c2ccc(OC(F)F)cc2C(=O)N2CC(F)C2)cc(NC(=O)c2cc(CNC[C@@H]3CCCO3)cn(C3CC3)c2=O)n1 [Example 266]
N#Cc1ccc(-c2cc(NC(=O)c3cc(CNCCC(F)(F)F)cn(C4CC4)c3=O)nc(C3CC3)c2)c(C(=O)N2CC(F)(F)C2)c1 [Example 391]
N#Cc1ccc(-c2cc(NC(=O)c3cc(CNC[C@@H]4CCCO4)cn(C4CC4)c3=O)nc(C3CC3)c2)c(C(=O)N2CC(F)(F)C2)c1 [Example 352]
CCOc1cc(-c2c(F)cc(Cl)cc2C(=O)N2CC(F)(F)C2)cc(NC(=O)c2cc(CN[C@@H](C)[C@H](C)OC)cn(C3CC3)c2=O)n1 [Example 203]
COc1ccc(-c2cc(NC(=O)c3cc(CNCC(C)C)cn(C)c3=O)nc(OC(C)C)c2)c(C(=O)N2CC(F)C2)c1 [Example 317]
COCCNCc1cc(C(=O)Nc2cc(-c3c(F)cc(C#N)cc3C(=O)N3CC(F)(F)C3)cc(C3CC3)n2)c(=O)n(C2CC2)c1 [Example 237]
COc1ccc(-c2cc(NC(=O)c3cc(CN[C@@H](C)[C@H](C)OC)cn(C4CC4)c3=O)nc(C3CC3)c2)c(C(=O)N2CC(F)(F)C2)c1 [Example 152, N-(6-Cyclopropyl-4-{2-[(3,3-difluoro-1-azetidinyl)carbonyl]-4-methoxyphenyl}-2-pyridyl)-1-cyclopropyl-5-{[(1S,2S)-2-methoxy-1-methylpropylamino]methyl}-2-oxo-1,2-dihydronicotinamide]
CO[C@@H](C)CNCc1cc(C(=O)Nc2cc(-c3cc(F)c(Cl)cc3C(=O)N3CC(F)(F)C3)cc(C3CC3)n2)c(=O)n(C2CC2)c1 [Example 215]
CC(C)Nc1cc(-c2c(F)cc(Cl)cc2C(=O)N2CC(F)(F)C2)cc(NC(=O)c2cc(CN[C@@H](C)C3CCC3)cn(C3CC3)c2=O)n1 [Example 200]
CCOc1cc(-c2c(F)cc(Cl)cc2C(=O)N2CC(F)(F)C2)cc(NC(=O)c2cc(CNC[C@H](C)OC)cn(C3CC3)c2=O)n1 [Example 199]
CO[C@@H](C)CNCc1cc(C(=O)Nc2cc(-c3ccc(OC(F)F)cc3C(=O)N3CC(F)(F)C3)cc(C3CC3)n2)c(=O)n(C2CC2)c1 [Example 321]
N#Cc1ccc(-c2cc(NC(=O)c3cc(CNC[C@@H]4CCCO4)cn(CC(F)(F)F)c3=O)nc(C3CC3)c2)c(C(=O)N2CC(F)(F)C2)c1 [Example 179]
CO[C@@H](C)CNCc1cc(C(=O)Nc2cc(-c3ccc(F)cc3C(=O)N3CC(F)(F)C3)cc(NC(C)C)n2)c(=O)n(C2CC2)c1 [Example 357]
CC(C)Oc1cc(-c2ccc(C#N)cc2C(=O)N2CC(F)(F)C2)cc(NC(=O)c2cc(CNC[C@@H]3CCCO3)cn(C)c2=O)n1 [Example 389]
CC(C)Oc1cc(-c2ccc(C#N)cc2C(=O)N2CC(F)(F)C2)cc(NC(=O)c2cc(CN[C@@H](C)C3CCC3)cn(C)c2=O)n1 [Example 100, N-[4-[4-cyano-2-(3,3-difluoroazetidine-1-carbonyl)phenyl]-6-propan-2-yloxypyridin-2-yl]-5-[[[(1S)-1-cyclobutylethyl]amino]methyl]-1-methyl-2-oxopyridine-3-carboxamide]
CCn1cc(CNCC(C)C)cc(C(=O)Nc2cc(-c3ccc(C#N)cc3C(=O)N3CC(F)(F)C3)cc(C3CC3)n2)c1=O [Example 168]
CCOc1cc(-c2c(F)cc(C#N)cc2C(=O)N2CC(F)(F)C2)cc(NC(=O)c2cc(CNC[C@H](C)OC)cn(C)c2=O)n1 [Example 120, N-[4-[4-cyano-2-(3,3-difluoroazetidine-1-carbonyl)-6-fluorophenyl]-6-ethoxypyridin-2-yl]-5-[[[(2S)-2-methoxypropyl]amino]methyl]-1-methyl-2-oxopyridine-3-carboxamide]
CCOc1cc(-c2ccc(C#N)cc2C(=O)N2CC(F)(F)C2)cc(NC(=O)c2cc(CNC[C@H](C)OC)cn(C3CC3)c2=O)n1 [Example 206]

Each compound was assayed on Jurkat cells (assay: IL-2 secretion assay in Jurkat cells activated with CD3/CD28 T Cell Activator). Conditions: Homo sapiens; Jurkat cells, CD3/CD28 T Cell Activator, 24 h, IL-2 AlphaLISA; read-out: IL-2 Secretion (EC50).
Type: cell-based
Method: Certain compounds were also evaluated in an IL-2 secretion assay. On the day of the assay, a 16 point, 1:2 master serial dilution of each compound was prepared in Opti-MEM to span a final concentration range of 10 μM to 300 pM. Assays were set up in CORNING® tissue culture-treated 384-well microplates containing 60 nL of each dilution. Jurkat cells grown in RPMI-1640 supplemented with 10% FBS, 1% Glutamax, and 1% Pen/Strep were collected, resuspended in Opti-MEM. 50,000 cells/well and added to the compound plates. After a short spin (1200 rpm for 1 min), the plates were incubated at 37° C. for 1 hour. The cells were activated by adding 15 μL of IMMUNOCULT™ Human CD3/CD28 T Cell Activator (STEMCELL Technologies) diluted in Opti-MEM. After 24 h of incubation at 37° C., aliquots of culture supernatants were transferred to OptiPlate-384 (PerkinElmer) microplates. The level of IL-2 secretion in the supernatants was then determined using the IL-2 (human) AlphaLISA Detection Kit (PerkinElmer) according to the manufacturer's recommendations. The AlphaLISA signal was measured using an EnVision plate reader (PerkinElmer). EC50 values were determined by fitting the data to a standard 4-parameter logistic equation. See Table 7 for data for select compounds (IL-2 Secretion (EC50)).

pEC50, > 7.00:
COCCNCc1cc(C(=O)Nc2cc(-c3ccc(F)cc3C(=O)N3CC(F)C3)cc(C3CC3)n2)c(=O)n(C2CC2)c1 [Example 67, N-(6-cyclopropyl-4-{4-fluoro-2-[(3-fluoro-1-azetidinyl)carbonyl]phenyl}-2-pyridyl)-1-cyclopropyl-5-[(2-methoxyethylamino)methyl]-2-oxo-1,2-dihydronicotinamide]
CO[C@@H](C)CNCc1cc(C(=O)Nc2cc(-c3ccc(Cl)cc3C(=O)N3CC(F)(F)C3)cc(OCC(F)F)n2)c(=O)n(C2CC2)c1 [Example 83]
